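These data come from cells grown in 96-well plates and exposed to compound for 48 hours at five concentrations. GI50 is the concentration that inhibits growth by half.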 Active and inactive are the calls of the source. Rule as the data show it: active = GI50 up to about 1.1 µM and inactive = higher.
Legend:
Assay in all cases: NCI anticancer screen, dose series, 48 h
786-0 = tested on: 786-0
SK-MEL-28 = tested on: SK-MEL-28
HOP-62 = tested on: HOP-62
KM12 = tested on: KM12
MDA-MB-231 = tested on: MDA-MB-231
OVCAR-3 = tested on: OVCAR-3
ACHN = tested on: ACHN
HCT-15 = tested on: HCT-15
MDA-N = tested on: MDA-N
IGROV-1 = tested on: IGROV-1
OVCAR-5 = tested on: OVCAR-5
SN12C = tested on: SN12C
NCI/ADR-RES = tested on: NCI/ADR-RES
U-251 = tested on: U-251
NCI-H460 = tested on: NCI-H460
HL-60 = tested on: HL-60
SF-539 = tested on: SF-539
MOLT-4 = tested on: MOLT-4
NCI-H226 = tested on: NCI-H226

SMILES | GI50 (786-0) | GI50 (SK-MEL-28) | GI50 (HOP-62) | GI50 (KM12) | GI50 (MDA-MB-231) | GI50 (OVCAR-3) | GI50 (ACHN) | GI50 (HCT-15) | GI50 (MDA-N) | GI50 (IGROV-1) | GI50 (OVCAR-5) | GI50 (SN12C) | GI50 (NCI/ADR-RES) | GI50 (U-251) | GI50 (NCI-H460) | GI50 (HL-60) | GI50 (SF-539) | GI50 (MOLT-4) | GI50 (NCI-H226)
O=C(O)CSc1ccc([N+](=O)[O-])cc1[N+](=O)[O-] | > 100 µM (inactive) | > 100 µM (inactive) | > 100 µM (inactive) | > 100 µM (inactive) | > 100 µM (inactive) | > 100 µM (inactive) | > 100 µM (inactive) | > 100 µM | > 100 µM (inactive) | > 100 µM (inactive) | > 100 µM (inactive) | > 100 µM (inactive) | > 100 µM (inactive) | > 100 µM (inactive) | > 100 µM (inactive) | > 100 µM (inactive) |  |  | 
C[C@]1(O)CC[C@H]2[C@@H]3CCc4cc(O)ccc4[C@H]3CC[C@@]21C | 6.38 µM (inactive) | 34.8 µM (inactive) |  | 0.308 µM (active) | 7.23 µM (inactive) |  | 16.6 µM (inactive) | 1.15 µM | 0.186 µM (active) | 0.735 µM (active) | 8.02 µM (inactive) |  | 1.99 µM (inactive) | 4.03 µM (inactive) | 1.36 µM (inactive) | 0.362 µM (active) | 0.356 µM (active) | 0.664 µM (active) | 
CC(=O)NC1(NC(C)=O)C2CC(C1Cc1ccccc1)C(C)(C)C2C (stereo not drawn) | > 100 µM (inactive) | > 100 µM (inactive) | > 100 µM (inactive) | > 100 µM (inactive) | > 100 µM (inactive) | > 100 µM (inactive) | > 100 µM (inactive) |  | > 100 µM (inactive) | > 100 µM (inactive) | > 100 µM (inactive) | > 100 µM (inactive) |  | > 100 µM (inactive) | > 100 µM (inactive) | > 100 µM (inactive) | > 100 µM (inactive) | > 100 µM (inactive) | > 100 µM (inactive)
COc1ccc(OC)c(C23CCCC(C2)N(C)CC3)c1 (stereo not drawn) | 25.3 µM (inactive) |  |  | 18.4 µM (inactive) | 21.3 µM (inactive) | 19.6 µM (inactive) | 26.9 µM (inactive) | 34 µM | 27.4 µM (inactive) |  | 40 µM (inactive) | 28.2 µM (inactive) | 60.3 µM (inactive) | 11.7 µM (inactive) | 19.2 µM (inactive) |  |  | 32.1 µM (inactive) | 
CCOc1ccc(NCC(=O)N2CC(=O)Nc3ccccc32)cc1 | > 100 µM (inactive) | > 100 µM (inactive) | > 100 µM (inactive) | > 100 µM (inactive) |  | > 100 µM (inactive) | > 100 µM (inactive) | > 100 µM |  |  | > 100 µM (inactive) | > 100 µM (inactive) |  | > 100 µM (inactive) | > 100 µM (inactive) | > 100 µM (inactive) | > 100 µM (inactive) | > 100 µM (inactive) | > 100 µM (inactive)
O=C(/C=C/c1ccc(O)c(O)c1)NCCc1ccc(-c2ccccc2)cc1 | 49.7 µM (inactive) | 59.8 µM (inactive) | 31.3 µM (inactive) | 30.8 µM (inactive) |  | 20.4 µM (inactive) |  | > 100 µM |  |  | 87.7 µM (inactive) |  | 64.7 µM (inactive) |  | 48.9 µM (inactive) | 28.3 µM (inactive) | > 100 µM (inactive) | 41.3 µM (inactive) | 
Cc1cc(C)n(C(=CC(=O)C(Cl)Cl)n2nc(C)cc2C)n1 | 2.07 µM (inactive) |  | 3.66 µM (inactive) | 6.49 µM (inactive) | 2.38 µM (inactive) | 3.66 µM (inactive) | 6.05 µM (inactive) | 2.73 µM |  | 9.64 µM (inactive) | 3.48 µM (inactive) |  | 2.65 µM (inactive) | 5.12 µM (inactive) | 6.97 µM (inactive) | 3.32 µM (inactive) | 3.43 µM (inactive) | 0.151 µM (active) | 0.735 µM (active)
Nc1nc(Cl)cc(/N=N\c2ccccc2)n1 | 30.6 µM (inactive) | > 100 µM (inactive) | 24.1 µM (inactive) | 92.5 µM (inactive) | 22.1 µM (inactive) | 11.7 µM (inactive) | 26.6 µM (inactive) | 12.5 µM |  | 16.6 µM (inactive) | 72.1 µM (inactive) | 43 µM (inactive) | 39.8 µM (inactive) |  |  | 6.38 µM (inactive) | 78.9 µM (inactive) | 18.5 µM (inactive) | 45.2 µM (inactive)
COc1cc(/C=c2\sc3n(c2=O)C(c2ccc(Cl)cc2)C2=C(CCCC2C)N=3)cc(OC)c1OC (stereo not drawn) | > 100 µM (inactive) | > 100 µM (inactive) | > 100 µM (inactive) | > 100 µM (inactive) | 25.9 µM (inactive) |  | > 100 µM (inactive) | > 100 µM | > 100 µM (inactive) | > 100 µM (inactive) | > 100 µM (inactive) | > 100 µM (inactive) |  | > 100 µM (inactive) |  | > 100 µM (inactive) |  | > 100 µM (inactive) | 
COc1ccc2c(c1OC)OC[C@@H](C1=CC(=O)C=C(O)C1=O)C2 | 5.38 µM (inactive) | 16.9 µM (inactive) | 27 µM (inactive) | 13 µM (inactive) | 4.46 µM (inactive) | 7.62 µM (inactive) | 4.8 µM (inactive) | 14.7 µM |  | 11.7 µM (inactive) | 18 µM (inactive) | 16.2 µM (inactive) | 24.5 µM (inactive) | 11.7 µM (inactive) | 11.8 µM (inactive) | 0.641 µM (active) | 13.5 µM (inactive) | 0.838 µM (active) | 19.6 µM (inactive)
COc1ccc(C2c3c(n(C)c(=O)n(C)c3=O)OC(N(C)C)(N(C)C)C2(F)F)cc1 (stereo not drawn) | > 100 µM (inactive) | > 100 µM (inactive) | > 100 µM (inactive) | > 100 µM (inactive) | > 100 µM (inactive) | > 100 µM (inactive) | > 100 µM (inactive) | > 100 µM |  |  | > 100 µM (inactive) |  | > 100 µM (inactive) | > 100 µM (inactive) | > 100 µM (inactive) |  | > 100 µM (inactive) | 2.92 µM (inactive) | > 100 µM (inactive)
COC(=O)c1ccc(/C=C2\Cc3ccccc3C2=O)cc1 | > 100 µM (inactive) | > 100 µM (inactive) | > 100 µM (inactive) | > 100 µM (inactive) | > 100 µM (inactive) | > 100 µM (inactive) | > 100 µM (inactive) | > 100 µM | > 100 µM (inactive) |  |  | > 100 µM (inactive) | > 100 µM (inactive) | > 100 µM (inactive) | > 100 µM (inactive) | > 100 µM (inactive) | > 100 µM (inactive) | > 100 µM (inactive) | 
COc1cccc(C2c3cc4c(cc3OC(N3CCCC3)C2c2ccccc2)OCO4)c1O (stereo not drawn) | 8.32 µM (inactive) | 13 µM (inactive) | 21 µM (inactive) | 2.76 µM (inactive) |  | 3.34 µM (inactive) | 3.72 µM (inactive) | 6 µM | 8.18 µM (inactive) | 7.59 µM (inactive) | 25.2 µM (inactive) | 12.7 µM (inactive) | 9.91 µM (inactive) |  | 8.22 µM (inactive) |  | 6.78 µM (inactive) | 3.85 µM (inactive) | 
N#CC1(C#N)NC(c2cccs2)C(C#N)(C#N)NC1c1cccs1 (stereo not drawn) | 39.9 µM (inactive) | 29.6 µM (inactive) | > 100 µM (inactive) | 39.9 µM (inactive) | 80.9 µM (inactive) | 25.2 µM (inactive) | 25.4 µM (inactive) | 30.7 µM |  | 30.3 µM (inactive) | 31.9 µM (inactive) | 43.2 µM (inactive) | 77.3 µM (inactive) | 22.8 µM (inactive) | 37.3 µM (inactive) | 17.1 µM (inactive) | 19.9 µM (inactive) | 23.3 µM (inactive) | 53.1 µM (inactive)
CCOC(=O)/C(C#N)=C1/C(O)=C(C(=O)OC)C(C(=O)OC)=C1C(=O)OC.c1ccncc1 | > 100 µM (inactive) | > 100 µM (inactive) |  | > 100 µM (inactive) |  | > 100 µM (inactive) | > 100 µM (inactive) | > 100 µM |  | > 100 µM (inactive) | > 100 µM (inactive) | > 100 µM (inactive) |  | > 100 µM (inactive) | > 100 µM (inactive) | > 100 µM (inactive) | > 100 µM (inactive) | > 100 µM (inactive) | 
NS(=O)(=O)c1ccc(CNC(=S)NC(=O)Nc2ccc(Cl)c(Cl)c2)cc1 | 16.8 µM (inactive) | 21.6 µM (inactive) | 18.6 µM (inactive) | 19 µM (inactive) | 10.6 µM (inactive) |  | 17.5 µM (inactive) | 16.2 µM | 20 µM (inactive) | 17.9 µM (inactive) | 29 µM (inactive) | 17.3 µM (inactive) | 19 µM (inactive) | 11.9 µM (inactive) | 25.2 µM (inactive) |  | 21.2 µM (inactive) | 15.9 µM (inactive) | 
CCOc1ccc(NC(=O)/C(=N\NC(C)(C)C)C2C(=O)Nc3ccccc3[S+]2[O-])cc1 (stereo not drawn) | > 100 µM (inactive) | > 100 µM (inactive) | > 100 µM (inactive) | > 100 µM (inactive) |  | > 100 µM (inactive) | > 100 µM (inactive) | > 100 µM | > 100 µM (inactive) | > 100 µM (inactive) | > 100 µM (inactive) | > 100 µM (inactive) | > 100 µM (inactive) | > 100 µM (inactive) | > 100 µM (inactive) | > 100 µM (inactive) | > 100 µM (inactive) | > 100 µM (inactive) | > 100 µM (inactive)
O=C1CC(c2ccc(Cl)cc2)Oc2ccccc21 (stereo not drawn) | 16.3 µM (inactive) | 85.9 µM (inactive) | 19.6 µM (inactive) | 12.9 µM (inactive) | 28.2 µM (inactive) |  | 36.1 µM (inactive) | 17 µM |  | 14.6 µM (inactive) |  |  | 16.1 µM (inactive) | 31.8 µM (inactive) | 19.8 µM (inactive) | 10.7 µM (inactive) | 13.4 µM (inactive) |  | 4.75 µM (inactive)

Reference: ChEMBL document CHEMBL1201862, “PubChem BioAssay data set” (2004)
